Reference: US20250197420A1, “MACROCYCLIC COMPOUNDS, COMPOSITIONS, AND METHODS OF USING THEREOF” (Sionna Therapeutics Inc., priority 2022, published 2025)

Legend:
[1] = biological target: T1, Purified recombinant NBD1 (Homo sapiens, UniProt P13569); test: Aggregation analysis using differential static light scattering (DSLS): thermal stability of NBD1; type: binding; conditions: NBD1 0.2 mg/ml; Tagg of compound well minus average Tagg of DMSO control wells
T1 construct: Purified recombinant NBD1 was produced using previously described methods; made in house
Procedure, shortened: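 ΔTagg is compound-well aggregation temperature minus the DMSO-control mean, each Tagg being the inflection point of light scattering measured by DSLS during a 1 °C/min ramp up to 70 °C. The protein was purified NBD1 (0.2 mg/ml) in pH 7.6 buffer containing 2 mM ATP, 5 mM MgCl2 and 1% glycerol.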

[2] = test system: Primary human bronchial epithelial cells from a ΔF508 homozygous CF donor (CF-HBE cells); test: TECC24 recording of CFTR-mediated transepithelial chloride transport, AUC fold over benchmark VX-809 @10 μM; type: cell-based; conditions: 48 hours incubation, AUC of forskolin-stimulated IEQ
Protocol: The effects of a test agent on CFTR-mediated transepithelial chloride transport is measured using TECC24 recording analysis. Test agents are solubilized in DMSO. Solubilized test agents are mixed with incubation medium containing DMEM/F12, Ultroser G (0.5%; Crescent Chemical, catalog #67042), Hyclone Fetal Clone II (2%; GE Healthcare, catalog #SH30066.02), bovine brain extract (0.25%; Lonza, catalog #CC-4098), insulin ([…]), IL-13 (10 ng/mL), hydrocortisone (20 nM), transferrin ([…]), triiodothyronine (500 nM), ethanolamine (250 nM), epinephrine (1.5 μM), phosphoethanolamine (250 nM), and retinoic acid (10 nM). Primary human bronchial epithelial cells from a ΔF508 homozygous CF donor (CF-HBE cells; from University of North Carolina Cystic Fibrosis Tissue Procurement Center), grown on Transwell HTS 24-well cell culture inserts (Costar, catalog #3378), are exposed to test agents or controls dissolved in incubation medium. The CF-HBE cells are cultured at 36.5° C. for 48 hours before TECC24 recordings are performed in the presence or absence of test agent, a positive control or vehicle (DMSO).
Following incubation, the transwell cell culture inserts containing the test agent or control-treated CF-HBE cells are loaded onto a TECC24 apparatus (TECC v7 or MTECC v2; EP Design) to record the transepithelial voltage (VT) and resistance (TEER) using 4 AgCl electrodes per well configured in current-clamp mode. The apical and basolateral bath solutions both contain (in mM) 140 NaCl, 5 KCl, 2 CaCl2), 1 MgCl2, 10 Hepes, and 10 glucose (adjusted to pH 7.4 with NaOH). To inhibit basal Na+ absorption, the ENaC inhibitor benzamil (10 μM) is added to the bath. Then, the adenylate cyclase activator, forskolin (10 μM), is added to the bath to activate CFTR. The forskolin-stimulated Cl− transport is halted by addition of CFTR inhibitor-172 (20 μM) to the bath at the end of the experiment to confirm specificity. VT and TEER recordings are digitally acquired at routine intervals using TECC or MTECC software (EP Design). VT and TEER are transformed into equivalent transepithelial Cl− current (IEQ), and the Area Under the Curve (AUC) of the IEQ time course between forskolin and CFTR inhibitor-172 addition is generated using Excel (Microsoft). Efficacy is expressed as the ratio of the test agent AUC divided by vehicle AUC. EC50s based on AUC are generated using the non-linear regression log(agonist) vs. response function in Prism software (Graphpad) with HillSlope fixed=1.
If a test agent increases the AUC of the forskolin-stimulated IEQ relative to VX-809 in CF-HBE cells, and this increase is inhibited by CFTR inhibitor-172, then the test agent is considered a CFTR corrector. TECC assay efficacy is expressed as the ratio of the test agent AUC divided by VX-809 AUC. As set forth in Table 2 below, a TECC value less than 3 is marked “A”; a value between 3 and 6 is marked “B”; a value between 6 and 20 is marked “C”.

T1 sequence (P13569 423-646 limits assumed): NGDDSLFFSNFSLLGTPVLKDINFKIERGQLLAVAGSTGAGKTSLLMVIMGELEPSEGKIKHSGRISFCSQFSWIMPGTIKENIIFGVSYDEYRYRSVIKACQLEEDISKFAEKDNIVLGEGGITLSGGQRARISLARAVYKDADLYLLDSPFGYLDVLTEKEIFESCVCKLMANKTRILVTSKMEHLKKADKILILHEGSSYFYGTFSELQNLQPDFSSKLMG

Compound	DSLS (ΔTagg) [1]	TECC (test agent AUC divided by VX-809 AUC) [2]
CC1(C)CNC(=O)CCc2c(c(F)cc3[nH]ccc23)Oc2ccc(F)c(c2)-c2ncc([nH]2)C(C)(c2cccc(CCC(=O)O)c2)CCOC1 (single isomer, unassigned) [Compound 67B, 3-[3-(24,30-difluoro-6,11,11-trimethyl-14-oxo-9,26-dioxa-3,13,21,32-tetrazapentacyclo[25.3.1.12,5.017,25.018,22]dotriaconta-1(31),2,4,17,19,22,24,27,29-nonaen-6-yl)phenyl]propanoic acid]	B (a value above 5 °C and less than or equal to 10 °C is marked “B”)	A (a TECC value less than 3 is marked “A”)
CN1CCC(C)(C)CCC(C)(c2cccc(CCC(=O)O)c2)c2cnc([nH]2)-c2cc(ccc2F)Oc2c(F)cc3[nH]ccc3c2CCC1=O (stereo not shown) [Compound 29, 3-[3-(23,29-Difluoro-6,9,9,12-tetramethyl-13-oxo-25-oxa-3,12,20,31-tetrazapentacyclo[24.3.1.12,5.016,24.017,21]hentriaconta-1(30),2,4,16,18,21,23,26,28-nonaen-6-yl)phenyl]propanoic acid]	C (a value greater than 10 °C and less than or equal to 25 °C is marked “C”)	B (a value between 3 and 6 is marked “B”)
[2H]C([2H])([2H])n1nc2nc1-c1cc(ccc1F)Oc1c(F)cc3[nH]ccc3c1CCC(=O)NCC(C)(C)CCCC2(C)c1cccc(CCC(=O)O)c1 (single isomer, unassigned) [Compound 76A, 3-[3-[23,29-difluoro-6,10,10-trimethyl-13-oxo-3-(trideuteriomethyl)-25-oxa-3,4,12,20,31-pentazapentacyclo[24.3.1.12,5.016,24.017,21]hentriaconta-1(30),2(31),4,16,18,21,23,26,28-nonaen-6-yl]phenyl]propanoic acid]	A (an ΔTagg value less than or equal to 5 °C is marked “A”)	A (a TECC value less than 3 is marked “A”)
CC1(C)CCCC(c2cccc(CCC(=O)O)c2)n2ccc(n2)-c2cc(ccc2F)Oc2c(F)cc3[nH]ccc3c2CCOC(=O)N1 (single isomer, unassigned) [Compound 95A, 3-[3-(23,29-difluoro-10,10-dimethyl-12-oxo-13,25-dioxa-5,11,20,31-tetrazapentacyclo-[24.3.1.12,5.016,24.017,21]hentriaconta-1(30),2(31),3,16(24),17(21),18,22,26,28-nonaen-6-yl)phenyl]propanoic acid]	B (a value above 5 °C and less than or equal to 10 °C is marked “B”)	B (a value between 3 and 6 is marked “B”)
CC1CCC(C)(c2cccc(CCC(=O)O)c2)c2cnc([nH]2)-c2cc(ccc2F)Oc2c(F)cc3[nH]ccc3c2CCNC(=O)OC1 (stereo not shown) [Compound 87, 3-[3-(23,29-Difluoro-6,9-dimethyl-12-oxo-11,25-dioxa-3,13,20,31-tetrazapentacyclo[24.3.1.12,5.016,24.017,21]hentriaconta-1(30),2,4,16(24),17(21),18,22,26,28-nonaen-6-yl)phenyl]propanoic acid]	C (a value greater than 10 °C and less than or equal to 25 °C is marked “C”)	B (a value between 3 and 6 is marked “B”)
Cn1nc2nc1-c1cc(ccc1F)Oc1c(F)cc3[nH]ccc3c1COC(=O)NC(C)(C)COCCC2(C)c1cccc(CCC(=O)O)c1 (single isomer, unassigned) [Compound 100B, 3-[3-(23,29-difluoro-3,6,11,11-tetramethyl-13-oxo-9,14,25-trioxa-3,4,12,20,31-pentazapentacyclo-[24.3.1.12,5.016,24.017,21]hentriaconta-1(30),2(31),4,16,18,21,23,26,28-nonaen-6-yl)phenyl]propanoic acid]	A (an ΔTagg value less than or equal to 5 °C is marked “A”)	C (a value between 6 and 20 is marked “C”)
CC1(c2cccc(CCC(=O)O)c2)CCCC2(CC2)CNC(=O)CCc2c(c(F)c(F)c3[nH]ccc23)Oc2ccc(F)c(c2)-c2ncc1[nH]2 (single isomer, unassigned) [Compound 69B, 3-[3-(22,23,29-trifluoro-6-methyl-13-oxo-spiro[25-oxa-3,12,20,31-tetrazapentacyclo-[24.3.1.12,5.016,24.017,21]hentriaconta-1(30),2,4,16,18,21,23,26,28-nonaene-10,1′-cyclopropane]-6-yl)phenyl]propanoic acid]	A (an ΔTagg value less than or equal to 5 °C is marked “A”)	B (a value between 3 and 6 is marked “B”)
CN1CC(C)(C)CCCC(C)(c2cccc(CC(=O)O)c2)c2cnc([nH]2)-c2cc(ccc2F)Oc2c(F)cc3[nH]ccc3c2CCC1=O (single isomer, unassigned) [Compound 65A, 2-[3-(23,29-difluoro-6,10,10,12-tetramethyl-13-oxo-25-oxa-3,12,20,31-tetrazapentacyclo-[24.3.1.12,5.016,24.017,21]hentriaconta-1(30),2,4,16,18,21,23,26,28-nonaen-6-yl)phenyl]acetic acid]	A (an ΔTagg value less than or equal to 5 °C is marked “A”)	A (a TECC value less than 3 is marked “A”)
CN1CC2(CCCC(C)(c3cccc(CCC(=O)O)c3)c3cnc([nH]3)-c3cc(ccc3F)Oc3c(F)cc4[nH]ccc4c3CCC1=O)CC2 (stereo not shown) [Compound 34, 3-[3-(23,29-Difluoro-6,12-dimethyl-13-oxo-spiro[25-oxa-3,12,20,31-tetrazapentacyclo[24.3.1.12,5.016,24.017,21]hentriaconta-1(30),2,4,16,18,21,23,26,28-nonaene-10,1′-cyclopropane]-6-yl)phenyl]propanoic acid]	C (a value greater than 10 °C and less than or equal to 25 °C is marked “C”)	A (a TECC value less than 3 is marked “A”)
CN1CCC(C)(C)CCC(c2ccccc2F)c2cnc([nH]2)-c2cc(ccc2F)Oc2c(F)cc3[nH]ccc3c2CCC1=O (stereo not shown) [Compound 31, 23,29-difluoro-6-(2-fluorophenyl)-9,9,12-trimethyl-25-oxa-3,12,20,31-tetrazapentacyclo[24.3.1.12,5.016,24.017,21]hentriaconta-1(30),2,4,16,18,21,23,26,28-nonaen-13-one]	A (an ΔTagg value less than or equal to 5 °C is marked “A”)	A (a TECC value less than 3 is marked “A”)
Cn1nc2nc1-c1cc(ccc1F)Oc1c(F)cc3[nH]ccc3c1COC(=O)NC(C)(C)CCCCC2c1cccc(CCC(=O)O)c1 (single isomer, unassigned) [Compound 97B, 3-[3-(23,29-difluoro-3,11,11-trimethyl-13-oxo-14,25-dioxa-3,4,12,20,31-pentazapentacyclo-[24.3.1.12,5.016,24.017,21]hentriaconta-1(30),2(31),4,16,18,21,23,26,28-nonaen-6-yl)phenyl]propanoic acid]	C (a value greater than 10 °C and less than or equal to 25 °C is marked “C”)	B (a value between 3 and 6 is marked “B”)
